pEC50: −log10 of the molar value.
Target: T1, human 5-HT4(a) (Homo sapiens, UniProt Q13639)
T1 construct: host or cells: GeneBlAzer HTR4-CRE-bla CHO-K1 cells
Assay: Evaluation of agonistic activity in CHO-K1 cells expressing human 5-HT4(a) (GeneBlAzer HTR4-CRE-bla CHO-K1, beta-lactamase reporter)
Assay type: cell-based
Settings: CHO-K1 cells stably expressing human 5-HT4(a)
Outline: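 Agonism read as CRE-driven β-lactamase activity: emission ratio 465/535 nm (excitation 410 nm) after 2 h substrate loading. Preceded by 5 h compound treatment, 8 concentrations, 1% DMSO in the added solution, of overnight-plated reporter CHO-K1 cells; EC50 by non-linear regression.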

T1 sequence (Q13639 1-387 isoform Q13639-2): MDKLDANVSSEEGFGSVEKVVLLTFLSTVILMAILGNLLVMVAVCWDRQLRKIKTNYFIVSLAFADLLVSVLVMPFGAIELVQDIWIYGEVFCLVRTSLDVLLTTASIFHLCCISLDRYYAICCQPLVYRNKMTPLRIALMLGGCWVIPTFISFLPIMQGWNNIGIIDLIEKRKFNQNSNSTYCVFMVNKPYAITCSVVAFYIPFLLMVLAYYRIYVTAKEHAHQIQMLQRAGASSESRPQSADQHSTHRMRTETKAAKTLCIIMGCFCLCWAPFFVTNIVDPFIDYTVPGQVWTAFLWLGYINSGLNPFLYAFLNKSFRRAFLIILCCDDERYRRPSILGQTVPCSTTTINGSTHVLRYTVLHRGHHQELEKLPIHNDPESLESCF

Structure (SMILES) | pEC50
CCCc1cc(N2CCC[C@H]2C)nc(Nc2cccc([N+](=O)[O-])c2)n1 [Example 319] | 10.10
CCCc1cc(N2CC[C@H](NC3CCCCC3)C2)nc(Nc2ccc(C)c(C#N)c2)n1 [Example 421] | 11.10
CCCc1cc(N2CCC[C@H]2CO)nc(Nc2ccc(F)c(C#N)c2)n1 [Example 214, (S)-2-fluoro-5-{4-[2-(hydroxymethyl)pyrrolidin-1-yl]-6-propylpyrimidin-2-ylamino}benzonitrile] | 10.54
CCCCc1cc(N2CC[C@H](NC(C)=O)C2)nc(Nc2ccc(N)c(C(F)(F)F)c2)n1 [Example 441] | 11.02
CCCc1cc(N2CC[C@H](NCC)C2)nc(Nc2ccc(N)c(C#N)c2)n1 [Example 489] | 11.82
CCCCc1cc(N2CC[C@H](NC(C)=O)C2)nc(Nc2cccc(C#N)c2)n1 [Example 223] | 10.96
CCCc1cc(N2CC[C@H](NCc3ccncc3)C2)nc(Nc2cccc(C#N)c2)n1 [Example 103, (S)-3-{4-propyl-6-[3-(pyridin-4-ylmethylamino)pyrrolidin-1-yl]pyrimidin-2-ylamino}benzonitrile] | 10.17
CCCCc1cc(N2CC[C@H](NCC)C2)nc(Nc2ccc(N)c(C(F)(F)F)c2)n1 [Example 467] | 11.85
CCCc1cc(N2CCC[C@H]2COC)nc(Nc2ccc(C)c(N)c2)n1 [Example 366] | 10.11
CCCc1cc(N2CC[C@H](NC(C)=O)C2)nc(Nc2ccc3cc[nH]c3c2)n1 [Example 243] | 10.96
CCCc1cc(N2CCC[C@H]2C)nc(Nc2ccc(N)c([N+](=O)[O-])c2)n1 [Example 328, (R)—N^1-[4-(2-methylpyrrolidin-1-yl)-6-propylpyrimidin-2-yl]-3-nitrobenzene-1,4-diamine] | 10.77
CCCc1cc(N2CC[C@H](NC(C)=O)C2)nc(Nc2cc(N)cc(C(F)(F)F)c2)n1 [Example 268] | 10.96
CCCc1cc(N2CC[C@H](NC3CCN(C(=O)c4ccccc4)CC3)C2)nc(Nc2cccc(C#N)c2)n1 [Example 139, (S)-3-{4-[3-(1-benzoylpiperidin-4-ylamino)pyrrolidin-1-yl]-6-propylpyrimidin-2-ylamino}benzonitrile] | 10.47
CCCc1cc(N2CCC[C@H]2CO)nc(Nc2ccc(F)c([N+](=O)[O-])c2)n1 [Example 208, (S)-{1-[2-(4-fluoro-3-nitrophenylamino)-6-propylpyrimidin-4-yl]pyrrolidin-2-yl}methanol] | 10.22
CCCc1cc(N2CCC[C@H]2C)nc(Nc2cccc(SC)c2)n1 [Example 314] | 9.74
CCCc1cc(N2CC[C@H](N)C2)nc(Nc2ccc(N)c(C(F)(F)F)c2)n1 [Example 352] | 11.57
CCCc1cc(N2CC[C@@H](O)C2)nc(Nc2cccc(C#N)c2)n1 [Example 57, (R)-3-[4-(3-hydroxypyrrolidin-1-yl)-6-propylpyrimidin-2-ylamino]benzonitrile] | 9.41
CCCc1cc(N2CC[C@H](NCC3CC3)C2)nc(Nc2ccc(C)c(Cl)c2)n1 [Example 381] | 11.37
CCCc1cc(N2CC[C@H](NC(C)=O)C2)nc(Nc2ccc(N)c([N+](=O)[O-])c2)n1 [Example 254, (S)—N-{1-[2-(4-amino-3-nitrophenylamino)-6-propylpyrimidin-4-yl]pyrrolidin-3-yl}acetamide] | 11.82
CCCc1cc(N2CC[C@H](NCC(C)(C)C)C2)nc(Nc2cccc(C#N)c2)n1 [Example 105, (S)-3-{4-[3-(neopentylamino)pyrrolidin-1-yl]-6-propylpyrimidin-2-ylamino}benzonitrile] | 11.30

Structure (SMILES) | pEC50
CCCc1cc(N2CCC[C@H]2COC)nc(Nc2ccc(F)c(N)c2)n1 [Example 365] | 10.57
CCCc1cc(N2CCC[C@H]2CO)nc(Nc2cc(Cl)ccc2C)n1 [Example 204] | 9.33
CCCc1cc(N2CCC(NC(C)=O)C2)nc(Nc2ccc(Cl)c([N+](=O)[O-])c2)n1 (centres unmarked) [Example 297, N-{1-[2-(4-chloro-3-nitrophenylamino)-6-propylpyrimidin-4-yl]pyrrolidin-3-yl}acetamide] | 10.55
CCCc1cc(N2CCC[C@H]2COC)nc(Nc2ccc(N)c(C(F)(F)F)c2)n1 [Example 42, (S)-N^1-{4-[2-(methoxymethyl)pyrrolidin-1-yl]-6-propylpyrimidin-2-yl}-3-(trifluoromethyl)benzene-1,4-diamine] | 10.48
CCCc1cc(N2CC[C@H](NCC3CC3)C2)nc(Nc2ccc(C)c([N+](=O)[O-])c2)n1 [Example 374, (S)-4-[3-(cyclopropylmethylamino)pyrrolidin-1-yl]-N-(4-methyl-3-nitrophenyl)-6-propylpyrimidin-2-amine] | 11.57
CCCc1cc(N2CC[C@H](NC(C)=O)C2)nc(Nc2ccc(C)c(C(F)(F)F)c2)n1 [Example 280] | 10.59
CCCc1cc(N2CC[C@H](NCC3CCCCC3)C2)nc(Nc2cccc(C#N)c2)n1 [Example 86, (S)-3-{4-[3-(cyclohexylmethylamino)pyrrolidin-1-yl]-6-propylpyrimidin-2-ylamino}benzonitrile] | 10.41
CCCc1cc(N2CCC(NC(C)=O)C2)nc(Nc2cccc([N+](=O)[O-])c2)n1 (centres unmarked) [Example 295, N-{1-[2-(3-nitrophenylamino)-6-propylpyrimidin-4-yl]pyrrolidin-3-yl}acetamide] | 10.32
CCCc1cc(N2CC[C@H](N)C2)nc(Nc2ccc(C)c(N)c2)n1 [Example 369] | 10.31
CCCc1cc(N2CCC[C@H]2CO)nc(Nc2ccc(C)c(C#N)c2)n1 [Example 213] | 10.77
CCCc1cc(N2CC[C@H](NC(=O)CN3CCCCC3)C2)nc(Nc2ccc(C)c(C#N)c2)n1 [Example 427] | 10.62
CCCCc1cc(N2CC[C@H](N(CC)CC)C2)nc(Nc2ccc(C)c(C#N)c2)n1 [Example 239] | 9.94
CCCc1cc(N2CC[C@H](NC(=O)CCN(C)C)C2)nc(Nc2cccc(C#N)c2)n1 [Example 161] | 9.92
CCCCc1cc(N2CC[C@H](NC(C)=O)C2)nc(Nc2ccc(Cl)c([N+](=O)[O-])c2)n1 [Example 438] | 10.82
CCCc1cc(N2CCC[C@H]2C)nc(Nc2ccc(C)c(N)c2)n1 [Example 334] | 10.07
CCCCc1cc(N2CC[C@H](NC)C2)nc(Nc2cc(N)cc(C#N)c2)n1 [Example 451] | 11.52
CCCc1cc(N2CC[C@H](NCc3ccc(N(C)C)cc3)C2)nc(Nc2cccc(C#N)c2)n1 [Example 110, (S)-3-(4-{3-[4-(dimethylamino)benzylamino]pyrrolidin-1-yl}-6-propylpyrimidin-2-ylamino)benzonitrile] | 10.74
CCCCc1cc(N2CC[C@H](NC(C)=O)C2)nc(Nc2ccc(F)c(C(F)(F)F)c2)n1 [Example 442] | 10.39
CCCc1cc(N2CCC[C@H]2C(=O)OC)nc(Nc2ccc3cc[nH]c3c2)n1 [Example 191] | 9.54
CCCc1cc(N2CC[C@H](N)C2)nc(Nc2ccc(N)c(C#N)c2)n1 [Example 355] | 11.15

Structure (SMILES) | pEC50
CCCCc1cc(N2CC[C@H](NCC)C2)nc(Nc2cccc(C#N)c2)n1 [Example 459] | 11.47
CCCc1cc(N2CCC(NC(C)=O)C2)nc(Nc2cccc(C#N)c2)n1 (centres unmarked) [Example 294, N-{1-[2-(3-cyanophenylamino)-6-propylpyrimidin-4-yl]pyrrolidin-3-yl}acetamide] | 10.12
CCCc1cc(N2CC[C@H](NCc3ccc[nH]3)C2)nc(Nc2ccc(C)c(C#N)c2)n1 [Example 416] | 11.13
CCCc1cc(N2CC[C@H](NC(=O)CCc3ccccc3)C2)nc(Nc2cccc(C#N)c2)n1 [Example 151, (S)-N-{1-[2-(3-cyanophenylamino)-6-propylpyrimidin-4-yl]pyrrolidin-3-yl}-3-phenylpropanamide] | 9.48
CCCc1cc(N2CC[C@H](NC(C)=O)C2)nc(Nc2ccc(N)c(C(F)(F)F)c2)n1 [Example 261] | 11.15
CCCCc1cc(N2CC[C@H](NCC)C2)nc(Nc2ccc(N)c([N+](=O)[O-])c2)n1 [Example 461] | 11.72
CCCc1cc(N2CC[C@H](NC)C2)nc(Nc2ccc(N)c(C#N)c2)n1 [Example 486] | 11.85
CCCCCCN[C@H]1CCN(c2cc(CCC)nc(Nc3cccc(C#N)c3)n2)C1 [Example 84, (S)-3-{4-[3-(hexylamino)pyrrolidin-1-yl]-6-propylpyrimidin-2-ylamino}benzonitrile] | 10.51
CCCCc1cc(N2CC[C@H](NC)C2)nc(Nc2ccc(Cl)c([N+](=O)[O-])c2)n1 [Example 450] | 11.11
CCCc1cc(N2CC[C@H](NCc3cccc(F)c3)C2)nc(Nc2cccc(C#N)c2)n1 [Example 90, (S)-3-{4-[3-(3-fluorobenzylamino)pyrrolidin-1-yl]-6-propylpyrimidin-2-ylamino}benzonitrile] | 10.04
CCCc1cc(N2CCC[C@H]2CO)nc(Nc2ccc(C)c(N)c2)n1 [Example 399] | 9.89
CCCCc1cc(N2CC[C@H](NCC)C2)nc(Nc2ccc(N)c(C#N)c2)n1 [Example 458] | 11.77
CCCCc1cc(N2CC[C@H](NC(C)=O)C2)nc(Nc2ccc(F)c(C#N)c2)n1 [Example 443] | 11.00
CCCc1cc(N2CC[C@H](N)C2)nc(Nc2ccc3cc[nH]c3c2)n1 [Example 346] | 10.85
CCCc1cc(N2CCC[C@H]2CO)nc(Nc2ccc(C)c(Cl)c2)n1 [Example 206] | 9.80
CCCc1cc(N2CCC(NC(C)=O)C2)nc(Nc2cc(Cl)ccc2C)n1 (centres unmarked) [Example 303] | 9.92
CCCc1cc(N2CC[C@H](NC3CCCC3)C2)nc(Nc2cccc(C#N)c2)n1 [Example 143] | 11.18
CCCCc1cc(N2CC[C@H](NC(C)=O)C2)nc(Nc2ccc(F)c(N)c2)n1 [Example 444] | 10.92
CCCc1cc(N2CC[C@H](NCC3CC3)C2)nc(Nc2cccc([N+](=O)[O-])c2)n1 [Example 375, (S)-4-[3-(cyclopropylmethylamino)pyrrolidin-1-yl]-N-(3-nitrophenyl)-6-propylpyrimidin-2-amine] | 11.48
